Source: patent US20260234188A1, “CHEMOKINE-BINDING PEPTIDES” (Oxford University Innovation Limited, priority 2022, published 2026)
Ends that are not written are not given here. Peptide text beside a SMILES is read from it.

Experiments:
[1] = target: T1, CXCL9 (Homo sapiens, UniProt Q07325); test: CXCL9-induced activated T-cell migration, transwell assay; format: cell-based; conditions: HD2 mutant peptides 10 μM, chemokine at EC80
T1 construct: purchased Peprotech
T1 sequence (Q07325 23-125): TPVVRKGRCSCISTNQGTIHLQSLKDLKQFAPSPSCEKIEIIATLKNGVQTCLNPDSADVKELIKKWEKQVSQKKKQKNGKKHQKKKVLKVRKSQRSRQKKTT
Protocol: FIG. 2. […] BK1.2 is described in (Darlot, 2020). […] Chemokines used are indicated by the name, followed in parenthesis by the supplier code (P in supplier code indicates Peprotech). […] All experiments were performed at EC80 doses of indicated chemokine. Data are shown as box-whisker plots of three technical and three biological replicates. Statistically significant differences (compared to control, indicated by #), using Dunnett's test with correction for multiple comparisons, are indicated by asterisks: ****=P≤0.0001, ***=P≤0.001, **=P≤0.01, *=P≤0.05.
Briefly, cell migration assays use THP1 cells (human monocyte) and primary human buffy coat white cells (consisting of neutrophil granulocytes, monocytes, and lymphocytes), and activated T-cells. THP1 cells and primary monocytes respond to CCL2, CCL3, CCL5, CCL8 and CXCL4, granulocytes to CXCL1 and CXCL8, activated T-cells to CXCL9/10/11. Assays are performed in 96-well Boyden chambers, and migrated cells counted and characterized using and ATTUNE Flow Cytometer as described. Triplicate assays are performed at the EC80 dose of each chemokine at 10 μM peptide concentration.
(§1) The J:CXCR1 cell line was generated by transfecting Jurkat cells by electroporation with PvuI-linearized plasmid D1398 and selecting with blasticidin (Sigma-Aldrich, Cat #203350, […]). […] J:CXCR1 cells were cultured in RPMI-1640 media (Gibco), supplemented with 10% FBS and 5 mM L-Glutamine with blasticidin. For J:CXCR1 migration assays, 300,000 cells/well were added to the top chamber of a 3 μm Transwell insert (Corning) in 50 μL of migration media (RPMI-1640, 0.5% FBS, 4 mM L-Glutamine, 0.05% DMSO). The bottom chamber contained 150 μL of chemokine, with or without peptide. Cells were migrated at 37° C. in 5% CO2 for 4 hours. The plate was incubated on a shaking platform for 10 minutes, 800 rpm, at 37° C., and 150 μL from the bottom of the plate transferred into a U-bottom plate containing 50 μL of migration media. Cell counts were determined by Attune NxT Flow Cytometer Plate Reader (ThermoFisher), based on cell size parameters FSC-H/SSC-H. Experiments were performed in 3 technical and 3 biological replicates. THP-1 migration assays were carried out using methods known in the art. Activated T-cell assays were carried out using methods known in the art, with the following modifications in the isolation process. Peripheral blood cells were obtained from leucocyte cones (NHS Blood Transfusion Services), following which, T-cells were isolated using two rounds of human CD8+ T-cell isolation kit (480011, BioLegend). At day 10 after activation, T-cells were frozen at 20 E6 cells/ml in TexMACS medium supplemented with 10% DMSO (D2650, Sigma) in liquid nitrogen. Prior to use, activated T-cells were recovered for 24 hours in TexMACs medium at 0.3 E6 cells/ml and incubated at 37° C. in 5% CO2. Chemokine sources are described in Supplementary information Table 3. Statistical significances between control experimental groups was evaluated using Dunnett's test. IC50 experiments were performed at the EC80 dose of chemokine. EC80 was calculated by fitting a chemokine dose-response curve with 3 parameters (fixing the top to 100%). IC50 was calculated by fitting an inhibitor response curve with 4 parameters.

[2] = target: CXCL12 (Homo sapiens, UniProt P48061); format: cell-based; set-up: activity in inhibiting migration of activated T cells in comparison to HD2_Y5W: dose or concentration left out as unconfirmed; conditions: chemokine at EC80; for chemotaxis compared with the parental HD2 peptide: HD2 mutant peptides 10 μM
Protocol: FIG. 22. Effect of selected combinatorial HD2 mutations on chemotaxis. FIG. 22A. Box-whisker plot showing the effect of the exemplar single and combinatorically mutant (CM) HD2 peptides on activated-T cell (ATC) migration induced by CXCL12. All experiments were performed as at least three technical and three biological replicates, and individual data points are indicated. […] HD2SCR is a scrambled version of HD2. […] Statistically significant differences (compared to control, HD2_Y5W, coloured blue), using Dunnett's test with correction for multiple comparisons, are indicated by asterisks: ****=P≤0.0001, ***=P≤0.001, **=P≤0.01, *=P≤0.05. All comparisons were made to HD2_Y5W, as it is present in CM539, CM452, and CM304. […] Technical replicates are shown as individual data points. […] The response curve (solid blue line) and its 95% confidence interval (grey ribbon) were calculated using a 4-parameter log-logistic plot. The agonist and estimated IC50 (dotted green line) are indicated.
as §1
(§2) Migration assays using THP1, activated T-cell (ATC) and J:CXCR1 (Jurkat cells stably transfected with CXCR1 receptor) were performed as described previously. IC50 experiments were performed at the EC80 dose of chemokine. EC80 was calculated by fitting a chemokine dose-response curve with 3 parameters (fixing the top to 100%). IC50 was calculated by fitting an inhibitor response curve with 4 parameters. R-packages used were ggupset_0.3.0, DescTools_0.99.44, and drc_3.0-1.

[3] = target: T2, CXCL6 (Homo sapiens, UniProt P80162); test: cell-based; conditions: HD2 mutant peptides 10 μM, chemokine at EC80
T2 sequence (P80162 38-114): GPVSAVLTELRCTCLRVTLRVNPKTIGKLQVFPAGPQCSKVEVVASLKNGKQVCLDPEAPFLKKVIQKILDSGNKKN
Protocol: FIG. 11. […] Technical replicates are shown as individual data points. […] The response curve (solid blue line) and its 95% confidence interval (grey ribbon) were calculated using a 4-parameter log-logistic plot.
as §1, §2

[4] = target: T3, CCL14 (Homo sapiens, UniProt Q16627); test: CCL14-induced cell migration assay; format: cell-based; conditions: HD2 mutant peptides 10 μM, chemokine at EC80
T3 sequence (Q16627 20-93): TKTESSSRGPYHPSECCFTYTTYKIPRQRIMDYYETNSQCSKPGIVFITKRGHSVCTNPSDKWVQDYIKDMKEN
Protocol: FIGS. 24 and 25. Effect of exemplar mutant HD2 peptides on chemotaxis. Box-whisker plots showing the effect of the exemplar mutant HD2 peptides on cell migration induced by indicated human chemokines. All experiments were performed as at least three technical and between one to three biological replicates, and individual data points are indicated. […] Chemokine and cell type names are indicated. HD2SCR is a scrambled version of HD2 used as negative control. All peptides were at 10 μM final concentration and chemokines at EC80 doses. […]
The J:CXCR1 cell line was generated by transfecting Jurkat cells by electroporation with PvuI-linearized plasmid D1398 and selecting with blasticidin (Sigma-Aldrich, Cat #203350, 5 g/mL). […] Cell counts were determined by Attune NxT Flow Cytometer Plate Reader (ThermoFisher), based on cell size parameters FSC-H/SSC-H. Experiments were performed in 3 technical and 3 biological replicates. […] Statistical significances between control experimental groups was evaluated using Dunnett's test. […] EC80 was calculated by fitting a chemokine dose-response curve with 3 parameters (fixing the top to 100%). IC50 was calculated by fitting an inhibitor response curve with 4 parameters. […]

[5] = target: T4, CCL15 (Homo sapiens, UniProt Q16663); test: CCL15-induced cell migration assay; format: cell-based; conditions: HD2 mutant peptides 10 μM, chemokine at EC80
T4 sequence (Q16663 22-113): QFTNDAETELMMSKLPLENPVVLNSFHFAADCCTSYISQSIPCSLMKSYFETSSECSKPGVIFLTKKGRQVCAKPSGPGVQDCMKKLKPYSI
Protocol: FIGS. 24 and 25. Effect of exemplar mutant HD2 peptides on chemotaxis. Box-whisker plots showing the effect of the exemplar mutant HD2 peptides on cell migration induced by indicated human chemokines. All experiments were performed as at least three technical and between one to three biological replicates, and individual data points are indicated. […] Chemokine and cell type names are indicated. HD2SCR is a scrambled version of HD2 used as negative control. All peptides were at 10 μM final concentration and chemokines at EC80 doses. Statistically significant differences (compared to control, coloured blue), using Dunnett's test with correction for multiple comparisons, are indicated by asterisks: ****=P≤0.0001, ***=P≤0.001, **=P≤0.01, *=P≤0.05.
The J:CXCR1 cell line was generated by transfecting Jurkat cells by electroporation with PvuI-linearized plasmid D1398 and selecting with blasticidin (Sigma-Aldrich, Cat #203350, […]). […] J:CXCR1 cells were cultured in RPMI-1640 media (Gibco), supplemented with 10% FBS and 5 mM L-Glutamine with blasticidin. For J:CXCR1 migration assays, 300,000 cells/well were added to the top chamber of a 3 μm Transwell insert (Corning) in 50 μL of migration media (RPMI-1640, 0.5% FBS, 4 mM L-Glutamine, 0.05% DMSO). […] Cell counts were determined by Attune NxT Flow Cytometer Plate Reader (ThermoFisher), based on cell size parameters FSC-H/SSC-H. Experiments were performed in 3 technical and 3 biological replicates. […] Statistical significances between control experimental groups was evaluated using Dunnett's test. […] EC80 was calculated by fitting a chemokine dose-response curve with 3 parameters (fixing the top to 100%). IC50 was calculated by fitting an inhibitor response curve with 4 parameters.
Migration assays using THP1, activated T-cell (ATC) and J:CXCR1 (Jurkat cells stably transfected with CXCR1 receptor) were performed as described previously. […] EC80 was calculated by fitting a chemokine dose-response curve with 3 parameters (fixing the top to 100%). IC50 was calculated by fitting an inhibitor response curve with 4 parameters. […]

CXCL12, sequence (P48061 22-89 limits assumed): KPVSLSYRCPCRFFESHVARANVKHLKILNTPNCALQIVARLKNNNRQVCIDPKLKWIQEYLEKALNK

Row | Molecule | chemotaxis compared with the parental HD2 peptide [1] | chemotaxis compared with the parental HD2 peptide [2] | chemotaxis compared with the parental HD2 peptide [3] | activity in inhibiting migration of activated T cells in comparison to HD2_Y5W ([2]; peptides final concentration as printed) | chemotaxis compared with the parental HD2 peptide [4] | chemotaxis compared with the parental HD2 peptide [5]
1 | EEDDWTAYAPLTCYFT-NH2 [HD2_W5, EEDDWTAYAPLTCYFT] | significant reduction in chemotaxis | significant reduction in chemotaxis | – | – | – | –
2 | CC(C)C[C@H](NC(=O)[C@@H]1CCCN1C(=O)[C@H](C)NC(=O)[C@H](Cc1ccc(O)cc1)NC(=O)[C@H](C)NC(=O)[C@@H](NC(=O)[C@H](Cc1ccc(O)cc1)NC(=O)[C@H](CC(=O)O)NC(=O)[C@H](CC(=O)O)NC(=O)[C@H](CCC(=O)O)NC(=O)[C@@H](N)CCC(=O)O)[C@@H](C)O)C(=O)N[C@H](C(=O)N[C@@H](CS)C(=O)N[C@@H](Cc1ccc(O)cc1)C(=O)N[C@@H](Cc1ccccc1)C(=O)N[C@@H](CS)C(N)=O)[C@@H](C)O [HD2_C16, EEDDYTAYAPLTCYFC] (H-EEDDYTAYAPLTCYFC-NH2; N-terminus assumed) | significant reduction in chemotaxis | significant reduction in chemotaxis | significant reduction in chemotaxis | potent inhibitor | significant reduction in chemotaxis | significant reduction in chemotaxis
3 | EEDDYWAYAPLTCYFT [HD2_W6] | significant reduction in chemotaxis | – | significant reduction in chemotaxis | – | – | significant reduction in chemotaxis
4 | EEDDYTAYWPLTCYFT [A9W] | significant reduction in chemotaxis | significant reduction in chemotaxis | significant reduction in chemotaxis | – | – | significant reduction in chemotaxis
